Measurements as given in patent publication US6106844A, “Immunomodulatory peptides of vespid antigen 5” (The Rockfeller University, priority 1998, dated 2000).

What was measured:
Format in all cases: cell-based
[1] = test system: r-Ag5 specific spleen cells from ASW/Sn mice; test: In vitro proliferation assay, spleen cells of r-Ag5-immunized ASW/Sn mice; details: spleen cells from mice immunized 5 times with rAg5; blank 5640 cpm
Procedure: (§1) FIG. 11. Stimulation index profile of ASW/sn mice spleens after 5 immunizations with r-Ag5. In vitro proliferation assays were performed with peptides at three concentrations: 1×10^-5 M (open bar), 1.25×10^-6 M ("uphill" hatch), and 1.56×10^-7 M ("downhill" hatch). The corresponding concentrations of recombinant Antigen 5 were 1.0×10^-6 M, 1.25×10^-7, and 1.56×10^-8 M. The blank was 5640 cpm.
(§2) The peptides of the invention can be tested in a proliferation assay for T cell responses. Generally, lymphocytes from a sensitized host are obtained. The host can be a mouse that has been immunized with a vespid venom antigen 5, or with a crossreactive protein, such as testes specific protein. Using techniques that are well known in the art, T lymphocyte response to the peptide can be measured in vitro. In a specific embodiment, infra, T cell responses are detected by measuring incorporation of ^3 H-thymidine, which increases with DNA synthesis associated with proliferation. Cell proliferation can also be detected using an MTT assay [Mossman, J. Immunol. Methods, 65:55-63,(1983); Niks and Otto, J. Immunol. Methods, 130:140-151 (1990)]. Alternatively, lymphokine production assays can be practiced according to the present invention. In one embodiment, lymphokine production can be assayed using immunological or co-stimulation assays [see, e.g., Fehlner et al., J. Immunol., 146:799 (1991)] or using the ELISPOT technique [Czerkinsky, et al., J. Immunol. Methods, 110:29 (1988)]. Alternatively, mRNA for lymphokines can be detected, e.g., by amplification [see Brenner, et al., Biotechniques, 7:1096 (1989)] or in situ hybridization [see, e.g., Kasaian and Biron, J. Immunol., 142:1287 (1989)]. Of particular interest are those individuals whose T cells produce lymphokines associated with IgE isotype switch events, e.g., IL-4 and IL-5 [Purkeson and Isakson, J. Exp. Med., 175:973-982 (1992)]. Also of interest are the peptide fragments of the vespid venom antigen 5 that contain epitopes recognized by T cells involved in IgE switch events. […]

[2] = test system: r-Ag5 specific spleen cells from C57B1/6 mice; test: In vitro proliferation assay, spleen cells of r-Ag5-immunized C57B1/6 mice; details: spleen cells from mice immunized 5 times with rAg5; blank 1050 cpm
Procedure: as §1, with “14.” for “11.”, “CS7B1/6” for “ASW/sn”, “1.56×10 ^-7” for “1.56×10^-7”, “1050” for “5640”
(§3) The peptides of the invention can be tested in a proliferation assay for T cell responses. Generally, lymphocytes from a sensitized host are obtained. The host can be a mouse that has been immunized with a vespid venom antigen 5, or with a crossreactive protein, such as testes specific protein. Using techniques that are well known in the art, T lymphocyte response to the peptide can be measured in vitro. In a specific embodiment, infra, T cell responses are detected by measuring incorporation of ^3 H-thymidine, which increases with DNA synthesis associated with proliferation. Cell proliferation can also be detected using an MTT assay [Mossman, J. Immunol. Methods, 65:55-63,(1983); Niks and Otto, J. Immunol. Methods, 130:140-151 (1990)]. […] Alternatively, mRNA for lymphokines can be detected, e.g., by amplification [see Brenner, et al., Biotechniques, 7:1096 (1989)] or in situ hybridization [see, e.g., Kasaian and Biron, J. Immunol., 142:1287 (1989)]. […]

[3] = test system: Ag5 specific spleen cells from BALB/c mice; test: In vitro proliferation assay, spleen cells of Ag5-immunized BALB/c mice; details: for Stimulation Index BALB/c: spleen cells from mice immunized with rAg5, blank 3970 cpm
Procedure: FIG. 4. Stimulation index profile of BALB/c mice spleens after 4 immunizations with natural (n)-Ag5. In vitro proliferation assays were performed with peptides at three concentrations: 1×10^-5 M (open bar), 1.25×10^-6 M ("uphill" hatch), and 1.56×10^-7 M ("downhill" hatch). The corresponding concentrations of recombinant antigen 5 control were 1.0×10^-6 M, 1.25×10^-7, and 1.56×10^-8 M. The blank was 2200 cpm.
as §1, with “FIG. 5.” for “FIG. 11.”, “of BALB/c” for “of ASW/sn”, “after 4” for “after 5”, “with recombinant (r)-Ag5.” for “with r-Ag5.”, “was 4700” for “was 5640”
FIG. 6. […] In vitro proliferation assays were performed with peptides at three concentrations: 1×10^-5 M (open bar), 1.25×10^-6 M ("uphill" hatch), and 1.56×10^-7 M ("downhill" hatch). The corresponding concentrations of recombinant Antigen 5 were 1.0×10^-6 M, 1.25×10^-7, and 1.56×10^-8 M. […]
as §2

[4] = test system: r-Ag5 specific spleen cells from mice of different strains; test: Summary of proliferation indices across mouse strains; details: four strains BALB/c, ASW/Sn, C3H/He, P/J, C57B1/6 excluded
Description: Summary of proliferation indices of r-Ag5 specific spleen
cells from mice of different strains on stimulation with the
dominant T cell epitope peptides^1
^1 Dominant T cell epitopes are defined as those peptides which showe
stimulation indices of ≥4 in at least one of 5 strains of mice
The present Example defines indices of 4 or greater for proliferation of Ag5- specific cells as containing a T cell epitope of Ag5. With this definition, the data in FIGS. 3-13 for mice of 5 strains with different haplotypes would indicate that the T cell epitopes of Ag5 are distributed throughout the entire molecule. As C57B1/6 mice is a poor responder, its data are excluded in the following comparison.
The data in Table 4 indicate that 14 peptides contain T cell epitopes of Ag5. Three of these peptides are recognized by three of the four strains tested, five of them by two strains and the remaining six by only one strain. […] They are peptides 1, 2, 5, 6, 9, 15, 20 and 18. […] This is particularly apparent for peptides 6, 20, and 18.

[5] = test system: r-Ag5 specific spleen cells from C3H/He mice; test: In vitro proliferation assay, spleen cells of r-Ag5-immunized C3H/He mice; details: spleen cells from mice immunized 5 times with rAg5; blank 3130 cpm
Procedure: as §1, with “13.” for “11.”, “C3H/He” for “ASW/sn”, “3130” for “5640”
as §3

[6] = test system: Tpx-C primed spleen cells from BALB/c mice; test: In vitro proliferation assay, Tpx-C primed spleen cells; details: BALB/c mice after 4 immunizations with r-fragment Tpx-C (residue 101-163)
Procedure: FIG. 16. Stimulation index profile of BALB/c mice spleen cells after 4 immunizations with Tpx-C. Stimulation was tested with peptide or protein at three different concentrations: Open bars--1×10^-5 M peptide, 5×10^-6 M Frag C or Tpx-C; "uphill" hatch--1.25×10^-6 M peptide; 6.25×10^-7 M Frag C or Tpx-C; "downhill" hatch--1.56×10^-7 M peptide, 7.8×10^-8 M Frag C, Tpx-C: and stippled--9.75×10^-9 M Frag-C or Tpx-C. The blank was 5110 cpm.
as §2

[7] = test system: Tpx-N primed spleen cells from BALB/c mice; test: In vitro proliferation assay, Tpx-N primed spleen cells; details: BALB/c mice after 4 immunizations with r-fragment Tpx-N (residue 14-106)
Procedure: FIG. 15. Stimulation index profile of BALB/c mice spleen cells after 4 immunizations with Tpx-N. Stimulation was tested with peptide or protein at three different concentrations: Open bars--1.0×10^-5 M peptide or Frag IN, 2.5×10^-6 M Tp X-N; "uphill" hatch--1.25×10^-6 M peptide or Frag IN. 3.13×10^-7 M, Tpx-N; "downhill" hatch--1.5×10^-7 M peptide and Frag IN, 3.91×10^-8 M Tpx-N; and stippled --1.96×10^-8 M Frag IN, 4.89×10^-9 M Tpx-N. The blank was 7270 cpm.
as §2, with “(1992)].” for “(1992)]. Also of interest are the peptide fragments of the vespid venom antigen 5 that contain epitopes recognized by T cells involved in IgE switch events.”

Question: With “GIHTLCKFGTSMKPNCGRNV [Peptide 2, white face hornet antigen 5 form 2, residue 11-30]” as the molecule, how does the “Stimulation Index ASW/Sn” value [1] read?
Answer: 2.2

Question: What about the “Stimulation Index C57B1/6” value [2] of the same molecule?
Answer: 1.9

Question: And the “Stimulation Index BALB/c” value [3]?
Answer: 2.9

Question: What about the “recognition by more than one mouse strain (stimulation indices of ≥4)” value (from here on “recognition”) [4] of the same molecule?
Answer: recognized by two or three strains of mice

Question: What about the “recognition” value ([4]; listed as SEQ ID NO:9) of the same molecule?
Answer: dominant in more than one strain of mouse

Question: Which “Stimulation Index C3H/He” value [5] does the source give for “NNYCKIKCRKGIHTLCKFGT [Peptide 1, white face hornet antigen 5 form 2, residue 1-20]” here?
Answer: 2.4

Question: And the “Stimulation Index ASW/Sn” value [1]?
Answer: 1.9

Question: What about the “Stimulation Index C57B1/6” value [2] of the same molecule?
Answer: 2.5

Question: And the “stimulation indices (FIG. 4-6 together)” value ([3]; BALB/c mice immunized 4 times with n-Ag5 or with r-Ag5)?
Answer: ≥ 4

Question: What about the “Stimulation Index BALB/c” value [3] of the same molecule?
Answer: 8.6

Question: And the “recognition” value [4]?
Answer: recognized by two or three strains of mice

Question: What about the “recognition” value ([4]; listed as SEQ ID NO:8) of the same molecule?
Answer: dominant in more than one strain of mouse

Question: What does the source list for “fragment C: recombinant C-terminal fragment of hornet antigen 5, residue 151-204 (NPKKGTMGDNNFSKVGHYTQMVWGKTKEIGCGSVKYIENNWHTHYLVCNYGPAG)”?
Answer: stimulation indices, Tpx-C primed spleen cells (FIG. 16) [6]: 9; stimulation indices, Tpx-C primed spleen cells (FIG. 16) ([6]; listed as r-fragment C): responded equally well

B1: Tpx-N: recombinant fragment of mouse testis protein Tpx, residue 14-106 (protein)
chain: LLRSPLTEGKDPDFTSLLTNQLQVQREIVNKHNELRRSVNPTGSDILKMEWSIQATTNAQKWANKCILEHSSKDDRKINIRCGENLYMSTDPT
Question: With B1 as the molecule, how does the “stimulation indices, Tpx-N primed spleen cells (FIG. 15)” value (“stimulation indices … (FIG. 15)” for short) [7] read?
Answer: greater than 6

B2: fragment IN: recombinant N-terminal fragment of hornet antigen 5, residue 1-114 (protein)
chain: PIINLSFGEANNYCKIKCSRGIHTLCKFGTSMKPNCGSKLVKVHGVSNDEKNEIVNRHNQFRQKVAKGLETRGNPGPQPPAKNMNVLVWNDELAKIAQTWANQCSFGHDQCRNT
Question: For B2, which “stimulation indices … (FIG. 15)” value [7] is on record?
Answer: greater than 6

Question: What about the “stimulation indices … (FIG. 15)” value ([7]; listed as r-fragment IN) of the same molecule?
Answer: responded equally well

B3: Tpx-C: recombinant fragment of mouse testis protein Tpx, residue 101-163 (protein)
chain: MSTDPTLWSTVIQSWYNENEDFVYGVGAKPNSAVGHYTQLVWYSSFKIGCGIAYCPNQDNLKY
Question: How did the “stimulation indices, Tpx-C primed spleen cells (FIG. 16)” value [6] turn out when B3 was run?
Answer: greater than 15
